From ChEMBL document CHEMBL1201862, “PubChem BioAssay data set” (2004)
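Values below derive from 48-hour exposures of cells grown in 96-well plates, with endpoints linearly interpolated between the two concentrations bracketing the appropriate inhibition level. GI50: concentration for 50% inhibition of growth.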 Activity calls are given as the source filed them. No stated cut-off is given here; in the data, active = GI50 up to about 1.1 µM and inactive = higher.

Legend:
Experiment in all cases: DTP human tumour cell line panel, 48 h
NCI-H226 = tested on: NCI-H226
SK-MEL-2 = tested on: SK-MEL-2
DMS-273 = tested on: DMS-273
OVCAR-5 = tested on: OVCAR-5
KM12 = tested on: KM12
M14 = tested on: M14
RXF 631 = tested on: RXF 631
COLO 205 = tested on: COLO 205
SN12C = tested on: SN12C
NCI-H23 = tested on: NCI-H23
HOP-92 = tested on: HOP-92
UACC-62 = tested on: UACC-62
RPMI-8226 = tested on: RPMI-8226
HOP-62 = tested on: HOP-62
A549 = tested on: A549
NCI-H460 = tested on: NCI-H460
CCRF-CEM = tested on: CCRF-CEM
OVCAR-4 = tested on: OVCAR-4
ACHN = tested on: ACHN
K562 = tested on: K562
HL-60 = tested on: HL-60
HCT-15 = tested on: HCT-15
Malme-3M = tested on: Malme-3M
OVCAR-3 = tested on: OVCAR-3
A498 = tested on: A498
LXFL 529 = tested on: LXFL 529
OVCAR-8 = tested on: OVCAR-8
786-0 = tested on: 786-0
M19-MEL = tested on: M19-MEL
EKVX = tested on: EKVX
UO-31 = tested on: UO-31
IGROV-1 = tested on: IGROV-1
DLD-1 = tested on: DLD-1
LOX IMVI = tested on: LOX IMVI
CAKI-1 = tested on: CAKI-1
SK-MEL-28 = tested on: SK-MEL-28
UACC-257 = tested on: UACC-257
U-251 = tested on: U-251
SF-295 = tested on: SF-295
NCI-H522 = tested on: NCI-H522
SW-620 = tested on: SW-620
SK-OV-3 = tested on: SK-OV-3
DMS-114 = tested on: DMS-114
HCT-116 = tested on: HCT-116
TK-10 = tested on: TK-10
SNB-19 = tested on: SNB-19
SF-539 = tested on: SF-539
HT-29 = tested on: HT-29
SF-268 = tested on: SF-268
KM-20L2 = tested on: KM-20L2
MOLT-4 = tested on: MOLT-4
SNB-78 = tested on: SNB-78
HCC 2998 = tested on: HCC 2998
SNB-75 = tested on: SNB-75
XF498 = tested on: XF498
HOP-18 = tested on: HOP-18
SK-MEL-5 = tested on: SK-MEL-5
RXF 393 = tested on: RXF 393

Question: COc1ccc(C)cc1-c1ccc(-c2cc(C)ccc2OC)o1 was tested. Which GI50 (NCI-H226) did it give?
Answer: > 100 µM (inactive)

Question: What about the GI50 (SK-MEL-2) of the same molecule?
Answer: 56.9 µM (inactive)

Question: And the GI50 (DMS-273)?
Answer: > 100 µM (inactive)

Question: And the GI50 (OVCAR-5)?
Answer: 87.1 µM (inactive)

Question: What about the GI50 (KM12) of the same molecule?
Answer: > 100 µM (inactive)

Question: And the GI50 (M14)?
Answer: > 100 µM (inactive)

Question: And the GI50 (RXF 631)?
Answer: > 100 µM (inactive)

Question: And the GI50 (COLO 205)?
Answer: > 100 µM (inactive)

Question: What about the GI50 (SN12C) of the same molecule?
Answer: > 100 µM (inactive)

Question: And the GI50 (NCI-H23)?
Answer: > 100 µM (inactive)

Question: What about the GI50 (HOP-92) of the same molecule?
Answer: 54.6 µM (inactive)

Question: What about the GI50 (UACC-62) of the same molecule?
Answer: > 100 µM (inactive)

Question: What about the GI50 (RPMI-8226) of the same molecule?
Answer: > 100 µM (inactive)

Question: And the GI50 (HOP-62)?
Answer: > 100 µM (inactive)

Question: And the GI50 (A549)?
Answer: > 100 µM (inactive)

Question: What about the GI50 (NCI-H460) of the same molecule?
Answer: > 100 µM (inactive)

Question: And the GI50 (CCRF-CEM)?
Answer: 68.4 µM (inactive)

Question: What about the GI50 (OVCAR-4) of the same molecule?
Answer: > 100 µM (inactive)

Question: And the GI50 (ACHN)?
Answer: > 100 µM (inactive)

Question: And the GI50 (K562)?
Answer: > 100 µM (inactive)

Question: What about the GI50 (HL-60) of the same molecule?
Answer: 86.5 µM (inactive)

Question: What about the GI50 (HCT-15) of the same molecule?
Answer: > 100 µM

Question: What about the GI50 (Malme-3M) of the same molecule?
Answer: 66.4 µM (inactive)

Question: What about the GI50 (OVCAR-3) of the same molecule?
Answer: > 100 µM (inactive)

Question: What about the GI50 (A498) of the same molecule?
Answer: > 100 µM (inactive)

Question: And the GI50 (LXFL 529)?
Answer: > 100 µM (inactive)

Question: And the GI50 (OVCAR-8)?
Answer: > 100 µM (inactive)

Question: And the GI50 (786-0)?
Answer: > 100 µM (inactive)

Question: What about the GI50 (M19-MEL) of the same molecule?
Answer: 54.6 µM (inactive)

Question: What about the GI50 (EKVX) of the same molecule?
Answer: > 100 µM (inactive)

Question: What about the GI50 (UO-31) of the same molecule?
Answer: > 100 µM (inactive)

Question: And the GI50 (IGROV-1)?
Answer: > 100 µM (inactive)

Question: What about the GI50 (DLD-1) of the same molecule?
Answer: > 100 µM (inactive)

Question: What about the GI50 (LOX IMVI) of the same molecule?
Answer: > 100 µM (inactive)

Question: What about the GI50 (CAKI-1) of the same molecule?
Answer: > 100 µM (inactive)

Question: And the GI50 (SK-MEL-28)?
Answer: > 100 µM (inactive)

Question: What about the GI50 (UACC-257) of the same molecule?
Answer: > 100 µM (inactive)

Question: What about the GI50 (U-251) of the same molecule?
Answer: > 100 µM (inactive)

Question: What about the GI50 (SF-295) of the same molecule?
Answer: > 100 µM (inactive)

Question: And the GI50 (NCI-H522)?
Answer: > 100 µM (inactive)

Question: And the GI50 (SW-620)?
Answer: > 100 µM (inactive)

Question: And the GI50 (SK-OV-3)?
Answer: > 100 µM (inactive)

Question: What about the GI50 (DMS-114) of the same molecule?
Answer: > 100 µM (inactive)

Question: What about the GI50 (HCT-116) of the same molecule?
Answer: > 100 µM (inactive)

Question: And the GI50 (TK-10)?
Answer: > 100 µM (inactive)

Question: What about the GI50 (SNB-19) of the same molecule?
Answer: > 100 µM (inactive)

Question: What about the GI50 (SF-539) of the same molecule?
Answer: > 100 µM (inactive)

Question: And the GI50 (HT-29)?
Answer: > 100 µM (inactive)

Question: And the GI50 (SF-268)?
Answer: > 100 µM (inactive)

Question: And the GI50 (KM-20L2)?
Answer: > 100 µM (inactive)

Question: And the GI50 (MOLT-4)?
Answer: > 100 µM (inactive)

Question: And the GI50 (SNB-78)?
Answer: > 100 µM (inactive)

Question: And the GI50 (HCC 2998)?
Answer: > 100 µM (inactive)

Question: What about the GI50 (SNB-75) of the same molecule?
Answer: > 100 µM (inactive)

Question: How did the GI50 (NCI-H226) turn out when CCOC(=O)C(=O)Nc1ccccc1OCC was run?
Answer: > 100 µM (inactive)

Question: And the GI50 (XF498)?
Answer: > 100 µM (inactive)

Question: What about the GI50 (SK-MEL-2) of the same molecule?
Answer: > 100 µM (inactive)

Question: What about the GI50 (OVCAR-5) of the same molecule?
Answer: > 100 µM (inactive)

Question: What about the GI50 (HOP-18) of the same molecule?
Answer: > 100 µM (inactive)

Question: And the GI50 (KM12)?
Answer: > 100 µM (inactive)

Question: And the GI50 (M14)?
Answer: > 100 µM (inactive)

Question: What about the GI50 (SN12C) of the same molecule?
Answer: > 100 µM (inactive)

Question: What about the GI50 (NCI-H23) of the same molecule?
Answer: > 100 µM (inactive)

Question: What about the GI50 (HOP-92) of the same molecule?
Answer: > 100 µM (inactive)

Question: What about the GI50 (UACC-62) of the same molecule?
Answer: > 100 µM (inactive)

Question: And the GI50 (RPMI-8226)?
Answer: > 100 µM (inactive)

Question: And the GI50 (HOP-62)?
Answer: > 100 µM (inactive)

Question: And the GI50 (SK-MEL-5)?
Answer: > 100 µM (inactive)

Question: What about the GI50 (A549) of the same molecule?
Answer: > 100 µM (inactive)

Question: And the GI50 (NCI-H460)?
Answer: > 100 µM (inactive)

Question: What about the GI50 (CCRF-CEM) of the same molecule?
Answer: > 100 µM (inactive)

Question: What about the GI50 (OVCAR-4) of the same molecule?
Answer: > 100 µM (inactive)

Question: And the GI50 (ACHN)?
Answer: > 100 µM (inactive)

Question: What about the GI50 (K562) of the same molecule?
Answer: > 100 µM (inactive)

Question: What about the GI50 (HL-60) of the same molecule?
Answer: > 100 µM (inactive)

Question: What about the GI50 (Malme-3M) of the same molecule?
Answer: > 100 µM (inactive)

Question: And the GI50 (RXF 393)?
Answer: > 100 µM (inactive)

Question: And the GI50 (OVCAR-3)?
Answer: > 100 µM (inactive)

Question: What about the GI50 (LXFL 529) of the same molecule?
Answer: > 100 µM (inactive)

Question: What about the GI50 (OVCAR-8) of the same molecule?
Answer: > 100 µM (inactive)

Question: And the GI50 (786-0)?
Answer: > 100 µM (inactive)

Question: And the GI50 (M19-MEL)?
Answer: > 100 µM (inactive)

Question: What about the GI50 (EKVX) of the same molecule?
Answer: > 100 µM (inactive)

Question: And the GI50 (UO-31)?
Answer: 92.9 µM (inactive)

Question: And the GI50 (IGROV-1)?
Answer: > 100 µM (inactive)

Question: And the GI50 (DLD-1)?
Answer: > 100 µM (inactive)

Question: And the GI50 (LOX IMVI)?
Answer: > 100 µM (inactive)

Question: What about the GI50 (CAKI-1) of the same molecule?
Answer: > 100 µM (inactive)

Question: And the GI50 (SK-MEL-28)?
Answer: > 100 µM (inactive)

Question: And the GI50 (UACC-257)?
Answer: > 100 µM (inactive)

Question: And the GI50 (U-251)?
Answer: > 100 µM (inactive)

Question: What about the GI50 (SF-295) of the same molecule?
Answer: > 100 µM (inactive)

Question: And the GI50 (NCI-H522)?
Answer: > 100 µM (inactive)

Question: And the GI50 (SW-620)?
Answer: > 100 µM (inactive)

Question: And the GI50 (SK-OV-3)?
Answer: > 100 µM (inactive)

Question: And the GI50 (DMS-114)?
Answer: > 100 µM (inactive)

Question: What about the GI50 (HCT-116) of the same molecule?
Answer: > 100 µM (inactive)

Question: What about the GI50 (TK-10) of the same molecule?
Answer: > 100 µM (inactive)

Question: And the GI50 (SNB-19)?
Answer: > 100 µM (inactive)

Question: And the GI50 (SF-539)?
Answer: > 100 µM (inactive)

Question: And the GI50 (HT-29)?
Answer: > 100 µM (inactive)

Question: What about the GI50 (SF-268) of the same molecule?
Answer: > 100 µM (inactive)

Question: And the GI50 (MOLT-4)?
Answer: > 100 µM (inactive)

Question: What about the GI50 (SNB-78) of the same molecule?
Answer: > 100 µM (inactive)

Question: What about the GI50 (HCC 2998) of the same molecule?
Answer: > 100 µM (inactive)
